Experimental data published in ChEMBL document CHEMBL1201861, “Genomics of Drug Sensitity in Cancer screening data, Wellcome Trust Sanger Institute”.

Key:
Assay in all cases: cells
OVCAR-3 = type: functional, cell-based, Homo sapiens; conditions: Homo sapiens, OVCAR-3
Description: SANGER: Inhibition of human OVCAR-3 cell growth in a cell viability assay.

U-87 MG = type: functional, cell-based, U-87MG ATCC; conditions: Homo sapiens
Description: SANGER: Inhibition of human U-87-MG cell growth in a cell viability assay.

EW-18 = type: functional, cell-based; conditions: Homo sapiens
Description: SANGER: Inhibition of human EW-18 cell growth in a cell viability assay.

PSN1 = type: functional, cell-based, Homo sapiens; conditions: Homo sapiens, PSN1
Description: SANGER: Inhibition of human PSN1 cell growth in a cell viability assay.

CP66-MEL = type: functional, cell-based, Homo sapiens; conditions: Homo sapiens, CP66-MEL
Description: SANGER: Inhibition of human CP66-MEL cell growth in a cell viability assay.

EC-GI-10 = type: functional, cell-based, Homo sapiens; conditions: Homo sapiens, EC-GI-10
Description: SANGER: Inhibition of human EC-GI-10 cell growth in a cell viability assay.

CAL-39 = type: functional, cell-based, Homo sapiens; conditions: Homo sapiens, CAL-39
Description: SANGER: Inhibition of human CAL-39 cell growth in a cell viability assay.

AM-38 = type: functional, cell-based, Homo sapiens; conditions: Homo sapiens, AM-38
Description: SANGER: Inhibition of human AM-38 cell growth in a cell viability assay.

JAR = type: functional, cell-based, Homo sapiens; conditions: Homo sapiens, JAR
Description: SANGER: Inhibition of human JAR cell growth in a cell viability assay.

SW 954 = type: functional, cell-based, Homo sapiens; conditions: Homo sapiens, SW 954
Description: SANGER: Inhibition of human SW954 cell growth in a cell viability assay.

ES1 = type: functional, cell-based, Homo sapiens; conditions: Homo sapiens, ES1
Description: SANGER: Inhibition of human ES1 cell growth in a cell viability assay.

SF-295 = type: functional, cell-based, Homo sapiens; conditions: Homo sapiens, SF-295; read-out: IC50
Description: SANGER: Inhibition of human SF295 cell growth in a cell viability assay.

U-251 = type: functional, cell-based, Homo sapiens; conditions: Homo sapiens, U-251
Description: SANGER: Inhibition of human U251 cell growth in a cell viability assay.

HOP-62 = type: functional, cell-based, Homo sapiens; conditions: Homo sapiens, HOP-62
Description: SANGER: Inhibition of human HOP-62 cell growth in a cell viability assay.

SW1573 = type: functional, cell-based, Homo sapiens; conditions: Homo sapiens, SW1573
Description: SANGER: Inhibition of human SW1573 cell growth in a cell viability assay.

ES3 = type: functional, cell-based, Homo sapiens; conditions: Homo sapiens, ES3
Description: SANGER: Inhibition of human ES3 cell growth in a cell viability assay.

KM-H2 = type: functional, cell-based; conditions: Homo sapiens
Description: SANGER: Inhibition of human KM-H2 cell growth in a cell viability assay.

KE-37 = type: functional, cell-based; conditions: Homo sapiens
Description: SANGER: Inhibition of human KE-37 cell growth in a cell viability assay.

HCE-T = type: functional, cell-based, Homo sapiens; conditions: Homo sapiens, HCE-T
Description: SANGER: Inhibition of human HCE-T cell growth in a cell viability assay.

MSTO-211H = type: functional, cell-based, Homo sapiens; conditions: Homo sapiens, MSTO-211H
Description: SANGER: Inhibition of human MSTO-211H cell growth in a cell viability assay.

NMC-G1 = type: functional, cell-based, Homo sapiens; conditions: Homo sapiens, NMC-G1
Description: SANGER: Inhibition of human NMC-G1 cell growth in a cell viability assay.

NCI-H209 = type: functional, cell-based; conditions: Homo sapiens
Description: SANGER: Inhibition of human NCI-H209 cell growth in a cell viability assay.

HT1197 = type: functional, cell-based, Homo sapiens, HT-1197; conditions: Homo sapiens, HT1197
Description: SANGER: Inhibition of human HT-1197 cell growth in a cell viability assay.

Daoy = type: functional, cell-based, Homo sapiens; conditions: Homo sapiens, Daoy
Description: SANGER: Inhibition of human Daoy cell growth in a cell viability assay.

SW982 = type: functional, cell-based; conditions: Homo sapiens
Description: SANGER: Inhibition of human SW982 cell growth in a cell viability assay.

IST-MES1 = type: functional, cell-based, Homo sapiens; conditions: Homo sapiens, IST-MES1
Description: SANGER: Inhibition of human IST-MES1 cell growth in a cell viability assay.

P30-OHK = type: functional, cell-based; conditions: Homo sapiens
Description: SANGER: Inhibition of human P30-OHK cell growth in a cell viability assay.

EGI-1 = type: functional, cell-based, Homo sapiens; conditions: Homo sapiens, EGI-1
Description: SANGER: Inhibition of human EGI-1 cell growth in a cell viability assay.

KYSE-140 = type: functional, cell-based, Homo sapiens; conditions: Homo sapiens, KYSE-140
Description: SANGER: Inhibition of human KYSE-140 cell growth in a cell viability assay.

RPMI-8226 = type: functional, cell-based; conditions: Homo sapiens
Description: SANGER: Inhibition of human RPMI-8226 cell growth in a cell viability assay.

COR-L88 = type: functional, cell-based; conditions: Homo sapiens
Description: SANGER: Inhibition of human COR-L88 cell growth in a cell viability assay.

MFE-280 = type: functional, cell-based, Homo sapiens; conditions: Homo sapiens, MFE-280
Description: SANGER: Inhibition of human MFE-280 cell growth in a cell viability assay.

LS-513 = type: functional, cell-based, Homo sapiens; conditions: Homo sapiens, LS-513
Description: SANGER: Inhibition of human LS-513 cell growth in a cell viability assay.

NCI-H441 = type: functional, cell-based; conditions: Homo sapiens
Description: SANGER: Inhibition of human NCI-H441 cell growth in a cell viability assay.

SW1417 = type: functional, cell-based, Homo sapiens; conditions: Homo sapiens, SW1417
Description: SANGER: Inhibition of human SW1417 cell growth in a cell viability assay.

ALL-PO = type: functional, cell-based; conditions: Homo sapiens
Description: SANGER: Inhibition of human ALL-PO cell growth in a cell viability assay.

RKO = type: functional, cell-based, Homo sapiens; conditions: Homo sapiens, RKO
Description: SANGER: Inhibition of human RKO cell growth in a cell viability assay.

DK-MG = type: functional, cell-based, Homo sapiens; conditions: Homo sapiens, DK-MG
Description: SANGER: Inhibition of human DK-MG cell growth in a cell viability assay.

KP-4 = type: functional, cell-based, Homo sapiens; conditions: Homo sapiens, KP-4; read-out: IC50
Description: SANGER: Inhibition of human KP-4 cell growth in a cell viability assay.

CAL-51 = type: functional, cell-based, Homo sapiens; conditions: Homo sapiens, CAL-51
Description: SANGER: Inhibition of human CAL-51 cell growth in a cell viability assay.

UMUC3 = type: functional, cell-based, Homo sapiens; conditions: Homo sapiens, UMUC3
Description: SANGER: Inhibition of human UM-UC-3 cell growth in a cell viability assay.

ESS-1 = type: functional, cell-based, Homo sapiens; conditions: Homo sapiens, ESS-1
Description: SANGER: Inhibition of human ESS-1 cell growth in a cell viability assay.

SF-268 = type: functional, cell-based, Homo sapiens; conditions: Homo sapiens, SF-268
Description: SANGER: Inhibition of human SF268 cell growth in a cell viability assay.

TE-8 = type: functional, cell-based, Homo sapiens; conditions: Homo sapiens, TE-8
Description: SANGER: Inhibition of human TE-8 cell growth in a cell viability assay.

MDA-MB-453 = type: functional, cell-based, Homo sapiens; conditions: Homo sapiens, MDA-MB-453
Description: SANGER: Inhibition of human MDA-MB-453 cell growth in a cell viability assay.

ES8 = type: functional, cell-based, Homo sapiens; conditions: Homo sapiens, ES8
Description: SANGER: Inhibition of human ES8 cell growth in a cell viability assay.

SW837 = type: functional, cell-based, Homo sapiens; conditions: Homo sapiens, SW837
Description: SANGER: Inhibition of human SW837 cell growth in a cell viability assay.

Calu-3 = type: functional, cell-based, Homo sapiens; conditions: Homo sapiens, Calu-3
Description: SANGER: Inhibition of human Calu-3 cell growth in a cell viability assay.

YKG-1 = type: functional, cell-based, Homo sapiens; conditions: Homo sapiens, YKG-1
Description: SANGER: Inhibition of human YKG-1 cell growth in a cell viability assay.

SK-MEL-30 = type: functional, cell-based; conditions: Homo sapiens
Description: SANGER: Inhibition of human SK-MEL-30 cell growth in a cell viability assay.

BEN = type: functional, cell-based, Homo sapiens; conditions: Homo sapiens, BEN
Description: SANGER: Inhibition of human BEN cell growth in a cell viability assay.

## C[C@]1(O)C[C@@H](c2nc(-c3ccc4ccc(-c5ccccc5)nc4c3)c3c(N)nccn32)C1 [LINSITINIB]
OVCAR-3
  IC50: > 2.56 µM
U-87 MG
  IC50: > 2.56 µM
EW-18
  IC50: 0.27 µM
PSN1
  IC50: > 2.56 µM
CP66-MEL
  IC50: 2.29 µM
EC-GI-10
  IC50: > 2.56 µM
CAL-39
  IC50: > 2.56 µM
AM-38
  IC50: > 2.56 µM
JAR
  IC50: > 2.56 µM
SW 954
  IC50: > 2.56 µM
ES1
  IC50: 0.107 µM
SF-295
  IC50: > 2.56 µM
U-251
  IC50: > 2.56 µM
HOP-62
  IC50: > 2.56 µM
SW1573
  IC50: > 2.56 µM
ES3
  IC50: 1.12 µM
KM-H2
  IC50: > 2.56 µM
KE-37
  IC50: > 2.56 µM
HCE-T
  IC50: > 2.56 µM
MSTO-211H
  IC50: > 2.56 µM
NMC-G1
  IC50: > 2.56 µM
NCI-H209
  IC50: > 2.56 µM
HT1197
  IC50: > 2.56 µM
Daoy
  IC50: > 2.56 µM
SW982
  IC50: > 2.56 µM
IST-MES1
  IC50: > 2.56 µM
P30-OHK
  IC50: > 2.56 µM
EGI-1
  IC50: > 2.56 µM
KYSE-140
  IC50: > 2.56 µM
RPMI-8226
  IC50: > 2.56 µM
COR-L88
  IC50: > 2.56 µM
MFE-280
  IC50: > 2.56 µM
LS-513
  IC50: 2.05 µM
NCI-H441
  IC50: > 2.56 µM
SW1417
  IC50: > 2.56 µM
ALL-PO
  IC50: > 2.56 µM
RKO
  IC50: > 2.56 µM
DK-MG
  IC50: > 2.56 µM
KP-4
  IC50: > 2.56 µM
CAL-51
  IC50: > 2.56 µM
UMUC3
  IC50: > 2.56 µM
ESS-1
  IC50: > 2.56 µM
SF-268
  IC50: > 2.56 µM
TE-8
  IC50: 1.31 µM
MDA-MB-453
  IC50: > 2.56 µM
ES8
  IC50: > 2.56 µM
SW837
  IC50: > 2.56 µM
Calu-3
  IC50: > 2.56 µM
YKG-1
  IC50: > 2.56 µM
SK-MEL-30
  IC50: > 2.56 µM
BEN
  IC50: > 2.56 µM

## COC(=O)CNC(=O)C(=O)OC
OVCAR-3
  IC50: 206 µM
U-87 MG
  IC50: 147 µM
EW-18
  IC50: 1510 µM
PSN1
  IC50: > 4000 µM
CP66-MEL
  IC50: 445 µM
EC-GI-10
  IC50: > 4000 µM
CAL-39
  IC50: 19.3 µM
AM-38
  IC50: 668 µM
SW 954
  IC50: 85.4 µM
ES1
  IC50: 1260 µM
SF-295
  IC50: 344 µM
U-251
  IC50: 215 µM
HOP-62
  IC50: 167 µM
SW1573
  IC50: 2520 µM
ES3
  IC50: 701 µM
KM-H2
  IC50: > 4000 µM
KE-37
  IC50: 43.3 µM
HCE-T
  IC50: 3440 µM
MSTO-211H
  IC50: > 4000 µM
NMC-G1
  IC50: 466 µM
NCI-H209
  IC50: 1130 µM
HT1197
  IC50: 315 µM
Daoy
  IC50: 247 µM
SW982
  IC50: 33.7 µM
IST-MES1
  IC50: > 4000 µM
P30-OHK
  IC50: 467 µM
EGI-1
  IC50: 329 µM
KYSE-140
  IC50: 1610 µM
RPMI-8226
  IC50: 870 µM
COR-L88
  IC50: 273 µM
MFE-280
  IC50: 1030 µM
LS-513
  IC50: 1850 µM
NCI-H441
  IC50: 839 µM
ALL-PO
  IC50: 69.9 µM
RKO
  IC50: 2460 µM
DK-MG
  IC50: 526 µM
KP-4
  IC50: 1800 µM
CAL-51
  IC50: 238 µM
UMUC3
  IC50: 264 µM
ESS-1
  IC50: 198 µM
SF-268
  IC50: 414 µM
TE-8
  IC50: 2640 µM
MDA-MB-453
  IC50: > 4000 µM
ES8
  IC50: 673 µM
SW837
  IC50: 858 µM
Calu-3
  IC50: 65.7 µM
YKG-1
  IC50: 767 µM
SK-MEL-30
  IC50: 626 µM
BEN
  IC50: 36.8 µM
